The source of these data is patent EP0082498A2, “Beta-lactam compounds and process for the preparation thereof” (SAGAMI CHEMICAL RESEARCH CENTER, priority 1981, dated 1983).

Holding throughout (experiment): Antibacterial activity, minimum inhibition concentration (MIC)
Common to all, as to assay type: cell-based

In assay [1] the test system is Proteus morganii IFO 3848. The following applies: for MIC: Morganella morganii; for minimum inhibition concentration (MIC): Table 1. How it is done:
(§1) Antibacterial activities of the compounds according to this invention, which had been prepared in the preceding Examples, were measured according to the method prescribed by The Committee of Amendment of "The method for measurement of the minimum inhibition concentration", The Chemotherapy Association, Japan (See Chemotherapy, Vol. 29, No. 1, pp. 76 ~ 79 (1981)).
(§2) The test results are shown in terms of the minimum inhibition concentration (MIC) (unit: µg/mℓ) in the following Tables 1 to 4.

Assay [2] deals with Salmonella typhimurium IID-971. The following applies: for MIC: Salmonella enterica, read-out: minimum inhibition concentration (MIC). How it is done:
as §1, §2

Assay [3] relates to Staphylococcus aureus MS 353. To be noted: for MIC: Staphylococcus aureus; for minimum inhibition concentration (MIC): Table 1. The method, then:
as §1, §2

Where [4] appears, read: IFO3848, Table 1, Proteus morganii IFO 3848, read-out: minimum inhibition concentration (MIC).
Where [5] appears, read: Table 1, Salmonella typhimurium IID-971.
[6] abbreviates: MS353, Table 1, Staphylococcus aureus MS 353, read-out: minimum inhibition concentration (MIC).

In brackets after ≈: the same amount, converted by molar mass. Like-named read-outs stand apart in the source and are kept apart here.

`Cn1nnnc1SCC1=C(C(=O)O)N2C(=O)C(NC(=O)C(=CBr)c3csc(N)n3)C2SC1` (stereo not drawn) [Example 21, 7-[2-Bromomethylene-2-(2-aminothiazol-4-yl)acetamido]-3-(l-methyl-lH-tetrazol-5-yl)thiomethyl-3-cephem-4-carboxylic acid]: the MIC in assay [1] (setting [4]) was 0.0125 µg/mL (≈ 0.0223 µM); in assay [2] (setting [5]) it was at most 0.006 µg/mL; in assay [3] (setting [6]) it was 0.2 µg/mL (≈ 0.357 µM).

`Cn1nnnc1SCC1=C(C(=O)O)N2C(=O)C(NC(=O)C(=CCl)c3ccccc3)C2SC1` (single isomer, unassigned) [Example 6, 7-(2-chloromethylenephenylacetamido)-3-(l-methyl-lH-tetrazol-5-yl)thiomethyl-3-cephem-4-carboxylic acid]: the figures for the “minimum inhibition concentration (MIC)” value in assay [1] (Proteus morganii IFO 3848), in assay [2] (setting [5]) and in assay [3] (Staphylococcus aureus MS 353) were 6.25 µg/mL (≈ 12.7 µM), 1.56 µg/mL (≈ 3.16 µM) and 0.78 µg/mL (≈ 1.58 µM), respectively.

Take `Cl.Cn1nnnc1SCC1=C(C(=O)O)N2C(=O)C(NC(=O)C(=CC#N)c3csc(N)n3)[C@H]2SC1` (single isomer, unassigned) [Example 14, 7-[2-Cyanomethylene-2-(2-aminothiazol-4-yl)acetamido]-3-(1-methyl-1H-tetrazol-5-yl)thiomethyl-3-cephem-4-carboxylic acid hydrochloride salt]: the MIC amounted to 0.39 µg/mL in assay [1] (setting [4]), 0.39 µg/mL in assay [2] (setting [5]) and 100 µg/mL in assay [3] (setting [6]).

Consider `Cn1nnnc1SCC1=C(C(=O)O)N2C(=O)C(NC(=O)C(=CC#N)c3csc(N)n3)C2SC1` (single isomer, unassigned) [Example 16, 7-[2-Cyanomethylene-2-(2-aminothiazol-4-yl)acetamido]-3-(l-methyl-lH-tetrazol-5-yl)thiomethyl-3-cephem-4-carboxylic acid], for which the MIC was at most 0.006 µg/mL in assay [1] (setting [4]), at most 0.006 µg/mL in assay [2] (setting [5]) and 0.78 µg/mL (≈ 1.54 µM) in assay [3] (setting [6]).

Turning to `Cn1nnnc1SCC1=C(C(=O)O)N2C(=O)C(NC(=O)C(=CC#N)c3csc(NC=O)n3)[C@H]2SC1` (single isomer, unassigned) [Example 13, 7-[2-Cyanomethylene-2-(2-formylaminothiazol-4-yl)acetamido]-3-(1-methyl-1H-tetrazol-5-yl)thiomethyl-3-cephem-4-carboxylic acid], the “minimum inhibition concentration (MIC)” value in assay [1] (Proteus morganii IFO 3848) came out at 50 µg/mL (≈ 93.7 µM); in assay [2] (setting [5]), 25 µg/mL (≈ 46.9 µM); in assay [3] (Staphylococcus aureus MS 353), 50 µg/mL (≈ 93.7 µM).

For the molecule `COC(=N)C=C(C(=O)NC1C(=O)N2C(C(=O)O)=C(CSc3nnnn3C)CSC12)c1csc(N)n1` (single isomer, unassigned) [Example 17, 7-[2-(o-methylcarboxyimidoylmethylene)-2-(2-aminothiazol-4-yl)acetamido]-3-(1-methyl-1H-tetrazol-5-yl)thiomethyl-3-cephem-4-carboxylic acid], the MIC is at most 0.006 µg/mL in assay [1] (setting [4]), 0.0125 µg/mL (≈ 0.0233 µM) in assay [2] (setting [5]) and 3.12 µg/mL (≈ 5.81 µM) in assay [3] (setting [6]).

Take `Nc1nc(C(=CCl)C(=O)NC2C(=O)N3C(C(=O)[O-])=C(CSc4nncs4)CS[C@H]23)cs1.[Na+]` (single isomer, unassigned) [Example 3, sodium 7-[2-chloromethylene-2-(2-aminothiazol-4-yl)acetamido]-3-(1,3,4-thiadiazol-5-yl)thiomethyl-3-cephem-4-carboxylate]: the MIC in assay [1] (IFO3848, read-out: minimum inhibition concentration (MIC)) is at most 0.006 µg/mL; in assay [2], at most 0.006 µg/mL; in assay [3] (MS353, read-out: minimum inhibition concentration (MIC)), 0.1 µg/mL.

In the case of `CC(=O)OCC1=C(C(=O)O)N2C(=O)C(NC(=O)C(=CCl)c3cnc(N)s3)C2SC1` (stereo not shown) [Example 8, sodium 7-[2-chloromethylene-2-(2-aminothiazol-5-yl)acetamido]-cephalosporanate], the MIC worked out at 25 µg/mL in assay [2] (setting [5]) and 0.78 µg/mL in assay [3] (setting [6]).

Turning to `CSc1nnc(SCC2=C(C(=O)O)N3C(=O)C(NC(=O)C(=CCl)c4csc(N)n4)C3SC2)s1` (single isomer, unassigned) [Example 20, 7-[2-chloromethylene-2-(2-aminothiazol-4-yl)acetamido]-3-(2-methylthio-l,3,4-thiadiazol-5-yl)thiomethyl-3-cephem-4-carboxylic acid], the MIC is at most 0.006 µg/mL in assay [1] (setting [4]), at most 0.006 µg/mL in assay [2] (setting [5]) and 0.1 µg/mL (≈ 0.178 µM) in assay [3] (setting [6]).

Regarding `CC1=C(C(=O)O)N2C(=O)C(NC(=O)C(=CCl)c3csc(N)n3)C2SC1` (single isomer, unassigned) [Example 2, sodium 7-[2-chloromethylene-2-(2-aminothiazol-4-yl)acetamido]desacetoxy-cephalosporanate], the MIC in assay [1] (setting [4]) is 0.0125 µg/mL; in assay [2] (setting [5]), 0.0125 µg/mL; in assay [3] (setting [6]), 6.25 µg/mL.

As to `Cc1nnc(SCC2=C(C(=O)O)N3C(=O)C(NC(=O)C(=CCl)c4csc(N)n4)C3SC2)s1` (single isomer, unassigned) [Example 1, sodium 7-[2-chloromethylene-2-(2-aminothiazol-4-yl)acetamido]-3-(2-methyl-l,3,4-thiadiazol-5-yl)thiomethyl-3-cephem-4-carboxylate], the MIC was at most 0.006 µg/mL in assay [1] (setting [4]), at most 0.006 µg/mL in assay [2] (setting [5]) and 0.1 µg/mL in assay [3] (setting [6]).

With `Nc1nc(C(=CCl)C(=O)NC2C(=O)N3C(C(=O)O)=C(CSc4nnnn4CC(=O)O)CS[C@H]23)cs1` (single isomer, unassigned) [Example 19, 7-[2-Chloromethylene-2-(2-aminothiazol-4-yl)acetamido]-3-(1-carboxymethyl-1H-tetrazol-5-yl)thiomethyl-3-cephem-4-carboxylic acid], the MIC is at most 0.006 µg/mL in assay [1] (setting [4]), at most 0.006 µg/mL in assay [2] (setting [5]) and 1.56 µg/mL (≈ 2.79 µM) in assay [3] (setting [6]).

As for `CCSC=C(C(=O)NC1C(=O)N2C(C(=O)O)=C(CSc3nnnn3C)CSC12)c1csc(N)n1` (stereo not drawn) [Example 10, sodium 7-[2-ethylmercaptomethylene-2-(2-aminothiazol-4-yl)acetamido]-3-(l-methyl-lH-tetrazol-5-yl)thiomethyl-3-cephem-4-carboxylate], the MIC was at most 0.006 µg/mL in assay [1] (setting [4]), at most 0.006 µg/mL in assay [2] (setting [5]) and 1.56 µg/mL in assay [3] (setting [6]).

As to `Cn1nnnc1SCC1=C(C(=O)O)N2C(=O)C(NC(=O)C(=CC(N)=O)c3csc(N)n3)C2SC1` (single isomer, unassigned) [Example 18, 7-[2-Carbamoylmethylene-2-(2-aminothiazol-4-yl)acetamido]-3-(1-methyl-lH-tetrazol-5-yl)thiomethyl-3-cephem-4-carboxylic acid], the MIC in assay [1] (setting [4]) was at most 0.006 µg/mL; in assay [2] (setting [5]), 0.1 µg/mL (≈ 0.191 µM); in assay [3] (setting [6]), 12.5 µg/mL (≈ 23.9 µM).

As for `Cn1nnnc1SCC1=C(C(=O)O)N2C(=O)C(NC(=O)C(=CCl)Sc3cnc(N)s3)C2SC1` (stereo not shown) [Example 9, sodium 7-[2-chloromethylene-3-(2-aminothiazol-5-yl)mercaptoacetamido]-3-(1-methyl-1H-tetrazol-5-yl)thiomethyl-3-cephem-4-carboxylate], the MIC in assay [2] (setting [5]) was 25 µg/mL; in assay [3] (setting [6]), 3.12 µg/mL.

`Cn1nnnc1SCC1=C(C(=O)O)N2C(=O)C(NC(=O)C(=CC#N)c3csc(NC=O)n3)[C@H]2SC1` (single isomer, unassigned) [Example 15, 7-[2-Cyanomethylene-2-(2-formylaminothiazol-4-yl)acetamido]-3-(1-methyl-1H-tetrazol-5-yl)thiomethyl-3-cephem-4-carboxylic acid]: the “minimum inhibition concentration (MIC)” value was determined as 0.39 µg/mL (≈ 0.731 µM) in assay [1] (Proteus morganii IFO 3848), 0.05 µg/mL (≈ 0.0937 µM) in assay [2] (setting [5]) and 1.56 µg/mL (≈ 2.92 µM) in assay [3] (Staphylococcus aureus MS 353).
